Consider five molecules from patent US20180140612A1, “TOPICAL OPHTHALMIC FORMULATIONS FOR THE TREATMENT AND PREVENTION OF MIGRAINE HEADACHE” (Ora, Inc., priority 2013, published 2018).

The conditions of series [1]: cited from earlier work.
The conditions of series [2]: migraineurs versus control subjects; cited from earlier work.
Series [3] is described as follows: instillation of ophthalmic drops in the eye of subjects with migraine. In kind it is in vivo, human. As to conditions: two subjects with occasional migraine. As to the method: Data from two subjects with occasional migraine has shown that one drop of ketotifen 0.025% in the eye was successful in providing relief within 2 hours post treatment
Data from two subjects with occasional migraine has shown that one drop of ketotifen 0.05% in the eye was successful in providing relief within 2 hours post treatment

For series [4] the following is noted: first month of treatment; prescription-event data; cited from earlier work.
The conditions of series [5]: topical 0.5% ophthalmic solution, twice daily dosing for 8 days, cited from earlier work.

Where a name gives a salt, the structure may show the parent alone. Some results are limits rather than exact numbers.

As for `CC(C)NCC(O)COc1ccc(CCOCC2CC2)cc1` (centres unmarked) [betaxolol], the migraine related complaints entry in series [1] (case control study, group of subjects receiving the topical beta-blocker) is on record as “showed improvement in their migraine related complaints”.
In the case of `NCCc1c[nH]cn1` [histamine], the “induction of migraine headache” value in series [2] is reported as “induced migraine headache more often in migraineurs than in control subjects”.
As to `CN1CCC(=C2c3ccccc3CC(=O)c3sccc32)CC1` [ketotifen], the “time to relief post treatment” value in series [3] (one drop of ketotifen 0.025% in the eye) and in series [3] (one drop of ketotifen 0.05% in the eye) was no more than 2 h in each case.
For `O=C(O)COCCN1CCN([C@H](c2ccccc2)c2ccc(Cl)cc2)CC1` [levocetirizine], in series [4], the “association of headache/migraines with treatment” value was “positively associated”.
For the molecule `CC(C)(C)NC[C@H](O)COc1nsnc1N1CCOCC1` [timolol maleate], the “further attacks of migraine” value in series [1] (case report, person with history of common migraine, topical timolol maleate 0.5% for bilateral ocular hypertension) is “did not experience any further attacks of migraine”. The “time of peak plasma concentration following first dose” value in series [5] was no more than 4 h. The peak plasma concentration in series [5] (following first dose) is 0.5 ng/mL.
